Test results from ChEMBL document CHEMBL4765285, “Discovery of orally active indirubin-3'-oxime derivatives as potent type 1 FLT3 inhibitors for acute myeloid leukemia” (Eur J Med Chem, 2020).
Activity calls are given as the source filed them. The calls are words filed in the database; no cut-off is given here.

Columns and labels:
[1] = Clearance in ICR mouse at 10 mg/kg, iv or po measured up to 1440 mins by LC-MS/MS analysis; type: ADME, organism-based; conditions: in vivo
[2] = biological target: T1, Receptor-type tyrosine-protein kinase FLT3 (Homo sapiens, UniProt P36888)
T1 sequence (P36888 whole entry): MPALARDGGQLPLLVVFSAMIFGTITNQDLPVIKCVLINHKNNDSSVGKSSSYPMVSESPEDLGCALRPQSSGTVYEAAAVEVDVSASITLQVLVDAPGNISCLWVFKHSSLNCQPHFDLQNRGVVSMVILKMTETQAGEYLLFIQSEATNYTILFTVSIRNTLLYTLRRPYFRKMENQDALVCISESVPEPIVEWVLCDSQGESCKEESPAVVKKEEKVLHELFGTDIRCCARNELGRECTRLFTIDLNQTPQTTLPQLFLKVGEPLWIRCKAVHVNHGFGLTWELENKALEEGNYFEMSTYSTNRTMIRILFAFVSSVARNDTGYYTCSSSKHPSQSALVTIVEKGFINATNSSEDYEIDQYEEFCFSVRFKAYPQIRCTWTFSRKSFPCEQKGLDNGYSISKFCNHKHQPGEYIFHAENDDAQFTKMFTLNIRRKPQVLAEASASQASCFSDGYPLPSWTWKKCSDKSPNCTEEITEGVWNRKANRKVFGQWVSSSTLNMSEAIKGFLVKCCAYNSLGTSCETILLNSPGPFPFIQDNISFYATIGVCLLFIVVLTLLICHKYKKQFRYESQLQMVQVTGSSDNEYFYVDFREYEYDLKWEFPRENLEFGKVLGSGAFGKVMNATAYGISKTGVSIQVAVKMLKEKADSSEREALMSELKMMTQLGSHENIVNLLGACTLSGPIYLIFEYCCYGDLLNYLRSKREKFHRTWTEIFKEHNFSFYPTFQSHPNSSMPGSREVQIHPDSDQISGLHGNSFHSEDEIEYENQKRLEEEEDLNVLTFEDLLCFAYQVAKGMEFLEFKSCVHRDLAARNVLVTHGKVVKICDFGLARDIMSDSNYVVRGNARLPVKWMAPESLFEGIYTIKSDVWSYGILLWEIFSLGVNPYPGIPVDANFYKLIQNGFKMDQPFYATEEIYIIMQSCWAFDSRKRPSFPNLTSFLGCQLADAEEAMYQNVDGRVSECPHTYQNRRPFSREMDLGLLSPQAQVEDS
Description: Inhibition of recombinant His-tagged human FLT3 expressed in baculovirus expression system using peptide substrate incubated for 30 mins in presence of ATP by HTRF assay

[3] = test system: MV4-11; experiment: cells; conditions: Homo sapiens, MV4-11, 72 h
Description: Antiproliferative activity against human MV4-11 cells assessed as cell growth inhibition after 72 hrs by WST assay

[4] = Oral bioavailability in ICR mouse at 10 mg/kg measured up to 1440 mins by LC-MS/MS analysis; type: ADME, organism-based; conditions: in vivo
[5] = test system: MV4-11; experiment: Antiproliferative activity against human MV4-11 cells assessed as growth inhibition after 72 hrs; type: functional
[6] = Half-life in ICR mouse at 10 mg/kg, iv or po measured up to 1440 mins by LC-MS/MS analysis; type: ADME, organism-based; conditions: in vivo
[7] = test system: SK-OV-3; experiment: cells; conditions: Homo sapiens, SK-OV-3, read-out: INH
Description: Antiproliferative activity against human SK-OV-3 cells assessed as cell growth inhibition at 1 uM by WST assay relative to control

[8] = test system: MOLM-14; experiment: cells; conditions: Homo sapiens
Description: Antiproliferative activity against wild type human MOLM14 cells assessed as cell growth inhibition by MTT assay

[9] = test system: HCT-116; experiment: cells; conditions: Homo sapiens, HCT-116, read-out: INH
Description: Antiproliferative activity against human HCT-116 cells assessed as cell growth inhibition at 1 uM by WST assay relative to control

[10] = test system: MOLM-14; experiment: cells; conditions: Homo sapiens; remark: listed apart in the source
Description: Antiproliferative activity against human MOLM14 cells harboring ITD/D835Y mutant assessed as cell growth inhibition by MTT assay

[11] = test system: MOLM-14; experiment: cells; conditions: Homo sapiens; remark: listed apart in the source
Description: Antiproliferative activity against human MOLM14 cells harboring ITD/F691L mutant assessed as cell growth inhibition by MTT assay

[12] = test system: A549; experiment: cells; conditions: Homo sapiens, A549, read-out: INH
Description: Antiproliferative activity against human A549 cells assessed as cell growth inhibition at 1 uM by WST assay relative to control

[13] = test system: K562; experiment: Antiproliferative activity against human K562 cells assessed as cell growth inhibition by WST assay; type: functional
[14] = test system: MDA-MB-231; experiment: cells; conditions: Homo sapiens, MDA-MB-231, read-out: INH
Description: Antiproliferative activity against human MDA-MB-231 cells assessed as cell growth inhibition at 1 uM by WST assay relative to control

[15] = test system: MOLM-14; experiment: cells; conditions: Homo sapiens; remark: listed apart in the source
Description: Antiproliferative activity against human MOLM14 cells harboring ITD mutant assessed as cell growth inhibition by MTT assay

[16] = test system: MV4-11; experiment: Antiproliferative activity against human MV4-11 cells assessed as cell growth inhibition by Celltiter-Glo luminescent assay; type: functional
[17] = test system: PC-3; experiment: cells; conditions: Homo sapiens, PC-3, read-out: INH
Description: Antiproliferative activity against human PC3 cells assessed as cell growth inhibition at 1 uM by WST assay relative to control

[18] = test system: HepG2; experiment: cells; conditions: Homo sapiens
Description: Antiproliferative activity against human HepG2 cells assessed as cell growth inhibition by WST assay

[19] = test system: MV4-11; experiment: Antitumor activity against human MV4-11 cells xenografted in BALB/c nu/nu mouse assessed as reduction in tumor volume at 20 mg/kg, po administered once daily for 21 days measured twice daily during compound dosing; type: functional, organism-based; conditions: time 21.0 day
[20] = Cmax in ICR mouse at 10 mg/kg, iv or po measured up to 1440 mins by LC-MS/MS analysis; type: ADME, organism-based; design: dose 10 mg/kg, time <=1440; conditions: in vivo
[21] = Toxicity in BALB/c nu/nu mouse xenografted with human MV4-11 cells assessed as body weight loss at 20 mg/kg, po administered for 21 days; type: organism-based; conditions: in vivo, 504 h, time 21 day
[22] = AUClast in ICR mouse at 10 mg/kg, iv or po measured up to 1440 mins by LC-MS/MS analysis; type: ADME, organism-based; design: dose 10 mg/kg, time <=1440; conditions: in vivo

Structure (SMILES) | IC50 [2] [nM] | GI50 [3] [nM] | also measured
Cl.O=C1Nc2ccc([N+](=O)[O-])cc2/C1=C1/Nc2ccccc2/C1=N\OCCN1CCNCC1 | 13.2 | 7.01 | clearance [1]: 108 mL/min/kg; bioavailability [4]: 1.33%
COC(=O)c1ccc2c(c1)/C(=C1/Nc3ccccc3/C1=N\OCCN1CCNCC1)C(=O)N2 | – | – | GI50 [5]: 1 nM; bioavailability [4]: 1.43%
CN1CCN(CCO/N=C2/C(=C3/C(=O)Nc4ccc(F)cc43)Nc3ccccc32)CC1 | 3.3 | 11.1 | –
Cl.O=C1Nc2ccc(F)cc2/C1=C1/Nc2ccc(F)cc2/C1=N\OCCN1CCNCC1 | 15.8 | 8.3 | clearance [1]: 28.1 mL/min/kg; bioavailability [4]: 16.7%; half-life [6]: 3.4 h
CN1CCN(CCO/N=C2/C(=C3/C(=O)Nc4ccccc43)Nc3ccccc32)CC1 | 9.29 | 54.8 | –
Cl.O=C1Nc2ccc(F)cc2/C1=C1/Nc2ccc(F)cc2/C1=N\OCCNC1CCNCC1 | 11.6 | 8.47 | clearance [1]: 231 mL/min/kg; bioavailability [4]: 15.3%; half-life [6]: 9.2 h
O=C1Nc2ccc([N+](=O)[O-])cc2/C1=C1/Nc2ccc(F)cc2/C1=N\OCCN1CCNCC1 | 27.6 | 10.2 | –
CCc1nc(C(N)=O)c(Nc2ccc(N3CCC(N4CCN(C)CC4)CC3)c(OC)c2)nc1NC1CCOCC1 [GILTERITINIB] | – | – | inhibition at 1 µM [7]: 23.3%; GI50 [8]: 4.94 nM; inhibition at 1 µM [9]: 45.1%; GI50 [10]: 1.91 nM; GI50 [11]: 5.24 nM; inhibition at 1 µM [12]: 4.05%; GI50 [13]: 1010 nM; inhibition at 1 µM [14]: 42.1%; GI50 [15]: 3.29 nM; GI50 [16]: 0.9 nM; inhibition at 1 µM [17]: 41.8%; GI50 [18]: 2200 nM
Cl.O=C1Nc2ccccc2/C1=C1/Nc2ccccc2/C1=N\OCCN1CCNCC1 | 2.7 | – | Activity [19]: Active; bioavailability [4]: 51%; Cmax [20]: 69.7 ng/mL; Activity [21]: Non-Toxic; AUC(0-t) at 24 h [22]: 1200 ng·h/mL
CN1CCN(CCO/N=C2/C(=C3/C(=O)Nc4ccc(F)cc43)Nc3ccc(F)cc32)CC1 | 27 | 31.5 | –
COc1ccc2c(c1)/C(=C1/Nc3ccccc3/C1=N\OCCN1CCNCC1)C(=O)N2 | 12.4 | 22 | –
CN1CCN(CCO/N=C2/C(=C3/C(=O)Nc4ccc(OC(F)(F)F)cc43)Nc3ccccc32)CC1 | 5.62 | 7 | –
O=C1Nc2ccc([N+](=O)[O-])cc2/C1=C1/Nc2ccc(O)cc2/C1=N\OCCN1CCOCC1 | 345 | 100 | –
O=C1Nc2ccc(F)cc2/C1=C1/Nc2ccccc2/C1=N\OCCNC1CCNCC1 | 9.47 | 11.9 | –
O=C1Nc2ccc(F)cc2/C1=C1/Nc2ccc(F)cc2/C1=N\OCCN1CCCC1 | 116 | 634 | –
O=C1Nc2ccc([N+](=O)[O-])cc2/C1=C1/Nc2ccc(O)cc2/C1=N\OCCBr | 324 | 470 | –
O=C1Nc2ccc(OC(F)(F)F)cc2/C1=C1/Nc2ccccc2/C1=N\OCCN1CCNCC1 | 40.2 | 17 | –
O=C1Nc2ccc([N+](=O)[O-])cc2/C1=C1/Nc2ccc(O)cc2/C1=N\O | – | 133 | –
O=C1Nc2ccc(F)cc2/C1=C1/Nc2ccccc2/C1=N\OCCN1CCCC1 | 257 | 212 | –
Cl.O=C1Nc2ccc([N+](=O)[O-])cc2/C1=C1/Nc2ccc(O)cc2/C1=N\OCCN1CCNCC1 | 12.2 | 26.5 | clearance [1]: 70.4 mL/min/kg; bioavailability [4]: 0%
Cl.NCCO/N=C1/C(=C2/C(=O)Nc3ccc([N+](=O)[O-])cc32)Nc2ccc(O)cc21 | 8.6 | 95.3 | bioavailability [4]: 0%
O=C1Nc2ccccc2/C1=C1/Nc2ccccc2/C1=N\OCCN1CCCCC1 | 128 | 138 | –
CN1CCN(CCO/N=C2/C(=C3/C(=O)Nc4ccc([N+](=O)[O-])cc43)Nc3ccc(O)cc32)CC1 | 18.9 | 50 | –
O=C1Nc2ccccc2/C1=C1/Nc2ccccc2/C1=N\OCCNC1CCNCC1 | 20.9 | 15.1 | –
CN1CCN(CCO/N=C2/C(=C3/C(=O)Nc4ccc([N+](=O)[O-])cc43)Nc3ccc(F)cc32)CC1 | 31.2 | 118 | –
COc1ccc2c(c1)/C(=C1/Nc3ccccc3/C1=N\OCCN1CCN(C)CC1)C(=O)N2 | 2.1 | 20 | –
O=C1Nc2ccccc2/C1=C1/Nc2ccccc2/C1=N\OCCN1CCCC1 | 41.3 | 104 | –
O=C1Nc2ccc(F)cc2/C1=C1/Nc2ccc(F)cc2/C1=N\OCCN1CCOCC1 | 98.3 | 116 | –
O=C1Nc2ccc(F)cc2/C1=C1/Nc2ccccc2/C1=N\OCCN1CCCCC1 | 142 | 263 | –
O=C1Nc2ccc(F)cc2/C1=C1/Nc2ccc(F)cc2/C1=N\OCCN1CCCCC1 | 45 | 105 | –
